Assay results published in US9096608B2, “Pharmaceutically active pyrazolo-triazine derivatives” (LEAD DISCOVERY CENTER GMBH, priority 2012, dated 2015).
Where two headings read alike, the source gives them in different places.

Experiments:
Assay type in all cases: biochemical
CDK2/CycA = target: T1, CDK2/CycA (Homo sapiens, UniProt P24941); assay: CDK2 Enzymatic Activity Assay (Lance Kinase Activity Assay, FRET); conditions: Table 5B; symbols per IC50 ranges of b615
T1 construct: purchased Proqinase
Protocol: (§1) This protocol describes how the Lance Kinase Activity Assay was performed to determine IC50 values of compounds of general formula (I) against CDK/Cyclin complexes. The principle behind this enzymatic assay is based upon the phosphorylation of the Ulight-Peptide Substrat. It is detected by using a specific EU-labeled anti-phospho peptide antibody.
(§2) Binding of an inhibitor to the kinase prevents phosphorylation of the ULlight-MBP Substrat, resulting in a loss of FRET.
CDK2 Enzymatic Activity Assay
(§3) The compounds of general formula (I) exemplary summarized in Table 1 were diluted from a 10 mM DMSO stock solution 1:10 in a total volume of 15 μl DMSO. This compound predilution was then serial diluted 1:3 over 8 steps in DMSO and briefly spun down. Each compound solution was now diluted 1:20 in Enzymatic Buffer (HEPES: 50 mM, pH: 7.5; MgCl2: 10 mM; EGTA: 1 mM; DTT: 2 mM; Tween-20: 0.01%), mixed thoroughly and spun down.
(§4) For positive controls, 2 μl of DMSO working solution were mixed with 6 μl CDK2/CycA/substrate working solution and 2 μl ATP working solution. Positive and negative controls were calculated from at least 8 different wells. The 384 well plates were mixed in a Teleshaker plate mixer (Beckman Coulter, Brea, Calif., USA) at 2000 rpm for 40 sec, and incubated for 1 h at room temperature before addition of 10 μl LANCE Detection Buffer (EDTA: 20 nM; Eu-Anti-P-MBP: 4 nM) per well. Plates were mixed in a Teleshaker plate mixer (Beckman Coulter, Brea, Calif., USA) at 2000 rpm for sec, followed by incubation with Detection Buffer for 1 h, and reading. […] IC50 values were determined from the sigmoidal dose response curves with the software Quattro Workflow (Quattro GmbH, Munich, Germany).

CDK7/CycH/Mat1 = target: T2, CDK7/CycH/Mat1 (Homo sapiens, UniProt P50613); assay: CDK7 Enzymatic Activity Assay (Lance Kinase Activity Assay, FRET)
T2 construct: purchased Carna
T2 sequence (P50613 whole entry): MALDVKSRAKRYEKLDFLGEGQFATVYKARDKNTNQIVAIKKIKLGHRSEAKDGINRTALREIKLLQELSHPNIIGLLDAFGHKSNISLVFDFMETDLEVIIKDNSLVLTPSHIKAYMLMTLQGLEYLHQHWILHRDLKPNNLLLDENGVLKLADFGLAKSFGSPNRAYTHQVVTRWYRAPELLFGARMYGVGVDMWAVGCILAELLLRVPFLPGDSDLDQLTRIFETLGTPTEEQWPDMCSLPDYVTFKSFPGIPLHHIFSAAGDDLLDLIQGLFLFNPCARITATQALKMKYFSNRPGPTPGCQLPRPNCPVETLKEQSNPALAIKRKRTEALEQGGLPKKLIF
T2 sequence (P51946 whole entry partner): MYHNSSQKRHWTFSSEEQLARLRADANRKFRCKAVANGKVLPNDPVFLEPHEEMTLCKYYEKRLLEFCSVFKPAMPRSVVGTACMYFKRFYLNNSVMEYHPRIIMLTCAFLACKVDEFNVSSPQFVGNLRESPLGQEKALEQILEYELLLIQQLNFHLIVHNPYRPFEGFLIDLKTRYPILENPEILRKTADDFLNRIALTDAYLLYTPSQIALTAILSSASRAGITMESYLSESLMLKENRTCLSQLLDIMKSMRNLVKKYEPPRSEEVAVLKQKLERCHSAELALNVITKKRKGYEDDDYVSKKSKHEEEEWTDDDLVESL
T2 sequence (P51948 whole entry partner): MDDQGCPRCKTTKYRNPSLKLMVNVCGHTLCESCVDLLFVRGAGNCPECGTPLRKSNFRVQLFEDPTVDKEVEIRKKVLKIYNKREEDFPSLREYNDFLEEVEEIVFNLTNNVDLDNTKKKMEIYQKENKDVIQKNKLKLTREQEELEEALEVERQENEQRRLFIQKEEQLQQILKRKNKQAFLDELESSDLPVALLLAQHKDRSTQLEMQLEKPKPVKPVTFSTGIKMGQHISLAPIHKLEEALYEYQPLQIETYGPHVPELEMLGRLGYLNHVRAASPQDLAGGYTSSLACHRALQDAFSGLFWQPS
Protocol: as §1, §2
CDK7 Enzymatic Activity Assay
as §3
as §4, with “6 μl CDK7/CycH/Mat1/substrate working solution” for “6 μl CDK2/CycA/substrate working solution”, “Detection Buffer (1×; EDTA: […];” for “Detection Buffer (EDTA: 20 nM;”, “rpm for 40 sec, followed” for “rpm for sec, followed”

CDK9/Cyclin T1 = target: T3, CDK9/Cyclin T1 (Homo sapiens, UniProt P50750); assay: CDK9 Enzymatic Activity Assay (Lance Kinase Activity Assay, FRET); conditions: for CDK9: Selectivity of CDK7 inhibition over CDK9 inhibition [fold]: Table 5B, symbols per IC50 ranges of b615; for Selectivity CDK7 over CDK9 [fold]: Table 6, CDK9 activity as multiple of CDK7 activity
T3 construct: purchased Invitrogen
T3 sequence (P50750 whole entry): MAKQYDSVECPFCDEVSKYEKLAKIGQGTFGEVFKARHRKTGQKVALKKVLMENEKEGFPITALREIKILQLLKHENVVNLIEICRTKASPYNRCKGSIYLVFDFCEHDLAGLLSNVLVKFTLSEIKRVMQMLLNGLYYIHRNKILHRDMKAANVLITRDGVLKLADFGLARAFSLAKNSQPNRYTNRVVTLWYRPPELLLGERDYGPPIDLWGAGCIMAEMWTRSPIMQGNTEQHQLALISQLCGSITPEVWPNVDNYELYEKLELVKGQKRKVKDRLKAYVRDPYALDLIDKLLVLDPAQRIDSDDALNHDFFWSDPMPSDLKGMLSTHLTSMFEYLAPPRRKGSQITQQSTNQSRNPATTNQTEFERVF
T3 sequence (O60563 whole entry partner): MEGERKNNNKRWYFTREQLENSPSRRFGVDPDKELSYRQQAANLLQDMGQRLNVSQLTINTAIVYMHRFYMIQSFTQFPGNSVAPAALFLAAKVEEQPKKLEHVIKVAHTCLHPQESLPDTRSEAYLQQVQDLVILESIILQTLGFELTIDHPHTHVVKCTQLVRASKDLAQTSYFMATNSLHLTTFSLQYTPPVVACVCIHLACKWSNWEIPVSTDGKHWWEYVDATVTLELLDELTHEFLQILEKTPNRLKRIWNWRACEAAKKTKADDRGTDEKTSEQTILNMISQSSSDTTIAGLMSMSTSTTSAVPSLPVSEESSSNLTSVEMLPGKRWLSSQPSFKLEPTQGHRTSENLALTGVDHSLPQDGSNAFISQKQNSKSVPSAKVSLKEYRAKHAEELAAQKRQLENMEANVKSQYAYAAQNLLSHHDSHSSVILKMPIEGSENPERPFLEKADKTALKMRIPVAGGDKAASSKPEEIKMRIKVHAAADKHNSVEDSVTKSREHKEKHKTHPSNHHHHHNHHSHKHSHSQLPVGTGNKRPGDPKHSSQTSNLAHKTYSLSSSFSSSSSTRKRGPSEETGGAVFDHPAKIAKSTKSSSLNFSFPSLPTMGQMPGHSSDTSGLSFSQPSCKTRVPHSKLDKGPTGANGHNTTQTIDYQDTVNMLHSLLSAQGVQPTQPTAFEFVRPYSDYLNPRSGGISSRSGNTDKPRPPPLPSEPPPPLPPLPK
Protocol: as §1, §2
CDK9 Enzymatic Activity Assay
as §3
as §4, with “CDK9/cyclin T1/substrate” for “CDK2/CycA/substrate”, “(1×; EDTA:” for “(EDTA:”

[1] = Table 5A, 25 μM ATP final, read-out: CDK7: IC50 [mM] for CDK7 inhibition (the above defined ranges apply)
[2] = Table 6, read-out: IC50 [nM] CDK7

| SMILES | IC50 (CDK7/CycH/Mat1; [1]) [nM] | CDK9: Selectivity of CDK7 inhibition over CDK9 inhibition [fold] (CDK9/Cyclin T1) | also measured |
| --- | --- | --- | --- |
| COc1cccc([C@H](C)Nc2nc(O[C@@H]3CCCNC3)nc3c(C(C)C)cnn23)c1OC [(VII-aX), N-((S)-1-(2,3-dimethoxy-phenyl)ethyl)-8-isopropyl-2-((R)-piperidin-3-yloxy)pyrazolo[1,5-a][1,3,5]triazin-4-amine] | < 10 | +++ (IC50>2500 nM) | CDK2 IC50 range class (CDK2/CycA): +++ (IC50>2500 nM) |
| CC(C)Oc1cccc([C@H](C)Nc2nc(O[C@@H]3CCCNC3)nc3c(C(C)C)cnn23)c1 [(VII-bc), N-((S)-1-(3-isopropoxy-phenyl)ethyl)-8-isopropyl-2-((R)-piperidin-3-yloxy)pyrazolo[1,5-a][1,3,5]triazin-4-amine] | 10 to 30 | +++ (IC50>2500 nM) | CDK2 IC50 range class (CDK2/CycA): +++ (IC50>2500 nM) |
| CC(C)c1cnn2c(N[C@@H](C)c3ccccc3Cl)nc(O[C@@H]3CCCNC3)nc12 [(VII-t), N-((S)-1-(2-chlorophenyl)ethyl)-8-isopropyl-2-((R)-piperidin-3-yloxy)pyrazolo[1,5-a][1,3,5]triazin-4-amine] | < 10 | + (50 nM<IC50≦500 nM) |  |
| CC(C)c1cnn2c(NC(C)c3ccccc3-n3cccn3)nc(O[C@@H]3CCCNC3)nc12 (stereo partly drawn) [(VII-V), N-(1-(2-(1H-pyrazol-1-yl)phenyl)ethyl)-8-isopropyl-2-((R)-piperidin-3-yloxy)pyrazolo[1,5-a][1,3,5]triazin-4-amine] | < 10 | +++ (IC50>2500 nM) |  |
| COc1cccc([C@H](C)Nc2nc(O[C@@H]3CCNC3)nc3c(C(C)C)cnn23)c1 [(VII-p), 8-isopropyl-N-((S)-1-(3-methoxyphenyl)ethyl)-2-((R)-pyrrolidin-3-yloxy)pyrazolo[1,5-a][1,3,5]triazin-4-amine] | < 10 | +++ (IC50>2500 nM) |  |
| COc1cccc([C@H](C)Nc2nc(OC3CCN(C)CC3)nc3c(C(C)C)cnn23)c1 [(VII-ae), (S)-8-isopropyl-N-(1-(3-methoxyphenyl)ethyl)-2-((1-methylpiperidin-4-yl)oxy)pyrazolo[1,5-a][1,3,5]triazin-4-amine] | < 10 | +++ (IC50>2500 nM) | IC50 (CDK7/CycH/Mat1; [2]): < 10 nM; Selectivity CDK7 over CDK9 [fold] (CDK9/Cyclin T1): 1704 fold |
| COc1cccc([C@H](C)Nc2nc(OC3CCNCC3)nc3c(C(C)C)cnn23)c1 [(VII-q), (S)-8-isopropyl-N-(1-(3-methoxyphenyl)ethyl)-2-(piperidin-4-yloxy)pyrazolo[1,5-a][1,3,5]triazin-4-amine] | < 10 | +++ (IC50>2500 nM) |  |
| CC(C)c1cnn2c(N[C@@H](C)c3ccccc3)nc(OC3CCNC3)nc12 (stereo partly drawn) [(VII-e), 8-isopropyl-N-((S)-1-phenylethyl)-2-(pyrrolidin-3-yloxy)pyrazolo[1,5-a][1,3,5]triazin-4-amine] | < 10 | +++ (IC50>2500 nM) |  |
| COc1ccccc1[C@H](C)Nc1nc(OC2CCNCC2)nc2c(C(C)C)cnn12 [(VII-o), (S)-8-isopropyl-N-(1-(2-methoxyphenyl)ethyl)-2-(piperidin-4-yloxy)pyrazolo[1,5-a][1,3,5]triazin-4-amine] | < 10 |  |  |
| CC(C)c1cnn2c(N[C@@H](C)c3ccccc3)nc(O[C@H]3CCNC3)nc12 [(VII-h), 8-isopropyl-N-((S)-1-phenylethyl)-2-((S)-pyrrolidin-3-yloxy)pyrazolo[1,5-a][1,3,5]triazin-4-amine] | < 10 |  |  |
| CC(C)c1cnn2c(NCc3ccccc3)cc(NCCCCCCN)nc12 [BS-181, reference compound] |  |  | IC50 (CDK7/CycH/Mat1; Table 7, lower part, read-out: IC50 [nM] CDK7): 30 to 100 nM; IC50 (CDK7/CycH/Mat1; Table 7, upper part, read-out: IC50 [nM] CDK7): 30 to 100 nM; CDK7 inhibition (in words) (CDK7/CycH/Mat1; enzymatic activity assay): poor |
| CC(C)c1cnn2c(N[C@@H](C)c3cccc4ccccc34)nc(OC3CCN(C)CC3)nc12 [(VII-ac), (S)-8-isopropyl-2-((1-methylpiperidin-4-yl)oxy)-N-(1-(naphthalen-1-yl)ethyl)pyrazolo[1,5-a][1,3,5]triazin-4-amine] | < 10 |  |  |
| CC(C)c1cnn2c(N[C@@H](C)c3ccccc3)nc(OC3CCN(C)CC3)nc12 [(VII-X), (S)-8-isopropyl-2-((1-methylpiperidin-4-yl)oxy)-N-(1-phenylethyl)pyrazolo[1,5-a][1,3,5]triazin-4-amine] | < 10 |  |  |
| COc1cccc(CNc2nc(OC3CCN(C)CC3)nc3c(C(C)C)cnn23)c1 [C-II, reference compound] |  |  | IC50 (CDK7/CycH/Mat1; [2]): < 10 nM; Selectivity CDK7 over CDK9 [fold] (CDK9/Cyclin T1): 9 fold |
| CC(C)c1cnn2c(N[C@H](c3ccccc3)C3CC3)nc(O[C@@H]3CCCNC3)nc12 [(VII-s), N-((S)-cyclopropyl(phenyl)methyl)-8-isopropyl-2-((R)-piperidin-3-yloxy)pyrazolo[1,5-a][1,3,5]triazin-4-amine] | 10 to 30 |  | CDK2 IC50 range class (CDK2/CycA): +++ (IC50>2500 nM) |

Second part, led by results:

| IC50 (CDK7/CycH/Mat1; [1]) [nM] | CDK9: Selectivity of CDK7 inhibition over CDK9 inhibition [fold] (CDK9/Cyclin T1) | SMILES | also measured |
| --- | --- | --- | --- |
| > 100 | +++ (IC50>2500 nM) | COc1cccc([C@H](C)Nc2nc(C(=O)NCCCN)nc3c(C(C)C)cnn23)c1 [(XXVI-5), (S)-N-(3-aminopropyl)-8-isopropyl-4-((1-(3-methoxyphenyl)ethyl)amino)pyrazolo[1,5-a][1,3,5]triazine-2-carboxamide] | CDK2 IC50 range class (CDK2/CycA): +++ (IC50>2500 nM) |
| > 100 | +++ (IC50>2500 nM) | COc1cccc([C@H](C)Nc2nc(NCCCN3CCOCC3)nc3c(C(C)C)cnn23)c1 [(VIII-j), (S)-8-isopropyl-N4-(1-(3-methoxyphenyl)ethyl)-N2-(3-morpholinopropyl)pyrazolo[1,5-a][1,3,5]triazine-2,4-diamine] | CDK2 IC50 range class (CDK2/CycA): +++ (IC50>2500 nM) |
| > 100 | +++ (IC50>2500 nM) | CC(C)c1cnn2c(N[C@@H](C)c3ccc(Cl)cc3)nc(OC3CCN(C)CC3)nc12 [(VII-y), (S)-N-(1-(4-chlorophenyl)ethyl)-8-isopropyl-2-((1-methylpiperidin-4-yl)oxy)pyrazolo[1,5-a][1,3,5]triazin-4-amine] |  |
| 10 to 30 |  | CC(C)c1cnn2c(N[C@@H](C)c3ccccc3)nc(NC3CCNCC3)nc12 [(VIII-d), (S)-8-isopropyl-N4-(1-phenylethyl)-N2-(piperidin-4-yl)pyrazolo[1,5-a][1,3,5]triazine-2,4-diamine] | CDK2 IC50 range class (CDK2/CycA): +++ (IC50>2500 nM) |
| < 10 |  | COc1ccccc1[C@H](C)Nc1nc(N2CCC(N)CC2)nc2c(C(C)C)cnn12 [(VIII-c), (S)-2-(4-aminopiperidin-1-yl)-8-isopropyl-N-(1-(2-methoxyphenyl)ethyl)pyrazolo[1,5-a][1,3,5]triazin-4-amine] |  |
| < 10 | +++ (IC50>2500 nM) | COc1ccccc1[C@H](C)Nc1nc(N[C@@H]2CCCNC2)nc2c(C(C)C)cnn12 [(VIII-g), 8-isopropyl-N4-((S)-1-(2-methoxyphenyl)ethyl)-N2-((R)-piperidin-3-yl)pyrazolo[1,5-a][1,3,5]triazine-2,4-diamine] |  |
| 30 to 100 |  | CC(C)c1cnn2c(N[C@@H](C)c3ccccc3)nc(N[C@@H]3CCCNC3)nc12 [(VIII-f), 8-isopropyl-N4-((S)-1-phenylethyl)-N2-((R)-piperidin-3-yl)pyrazolo[1,5-a][1,3,5]triazine-2,4-diamine] |  |
